In EP0960886B1, “Peptide T and related peptides in the treatment of inflammation, including multiple sclerosis” (priority 1992, dated 1993):
Where “and” joins values, the source holds several entries; their conditions need not be identical. Identical values can stand only once. Entries after “also recorded” stand apart in the source; their conditions may differ.

What was measured:
Molt-4 cells = assay: PBMC mediated killing of Molt-4 cells; format: cell-based, human; settings: Peptide T added on the first day of a four day culture
Description: When PBMC are mixed with allogeneic Molt-4 cells the growth of Molt-4 is inhibited (Figure 6). Alloreactive PBMC recognise Molt-4 as foreign and generate cytotoxic effector cells that kill Molt-4. Molt-4 is not a cytotoxic cell line and can not generate alloreactive effector cells. […] It is not possible to distinguish growth of alloreactive T cells from the growth of Molt-4 survivors since neither the growth of alloreactive T cells (Figure 5) nor the growth of Molt-4 (Table IX) would be affected by Peptide T.

[1] = tested on: Human umbilical vein endothelial cells; assay: TNFα-induced tissue factor expression on endothelial cells, ELISA (Example 17); format: cell-based; settings: TNFα 3 µg/ml for 4 hours; increasing concentrations of Peptide T
Protocol: Methodology Human umbilical vein endothelial cells were cultured essentially by the method of Bevilacqua et al. Proc. Natl. Acad. Sci. USA 83 4533-4537 (1986). Cell cultures were treated with TNFα at 3 µg/ml for 4 hours at 37° in the presence or absence of Peptide T. Tissue factor expression was measured by an ELISA, following absorbence at 450nm.

Neopterin = assay: Serum neopterin by RIA in patients with HIV disease; format: in vivo, human; settings: one line per patient with HIV disease
Description: However, neopterin levels were elevated prior to Peptide T administration whereas serum IL-1 levels were normal.

PBMC [2] = assay: Mitogen-induced lymphoproliferation (Example 12); format: cell-based, human
Protocol: Concanavalin A (Con A), pokeweed mitogen, (PWM) and phytohaemagglutin-P (PHA-P) were obtained from Sigma Chemical Co. (St. Louis, MO, USA). Peptide T was synthesised by Carlbiotech Ltd (Copenhagen, Denmark) and supplied as the chloride salt at 8.5 mg/ml in 0.9% benzyl alcohol as a preservative and was stored at 4°C. Peptide T was diluted to working solutions in culture medium (RPMI). Dilute solutions of Peptide T were prepared fresh from stock Peptide T for each experiment. ^3H-thymidine (5 Ci/mmol) was obtained from Amersham.
Isolation of PBMC: Whole blood from healthy, adult volunteers was drawn into heparin and peripheral blood mononuclear cells (PBMC) isolated by density gradient centrifugation on HISTOPAQUE™ (Sigma Chemical Co). PBMC were removed from the interface, washed three times in RPMI containing gentamycin (100µg/ml) and resuspended to 1x10^6 PBMC/ml in RPMI containing 10% foetal bovine serum and gentamycin. 10^5 PBMC were cultured in the presence of 100µl of mitogen suspension in 96 well plates. The final concentration of mitogen was: PWM 25µg/ml; PHA 12.5µg/ml and Con A 6.25µg/ml. 10µl of Peptide T working solution (or RPMI as negative control) was added and cell cultures incubated for a total of 5 days in a humid atmosphere, 5% CO2, 37°C. Cultures were then pulsed with ^3H-thymidine (in RPMI) 18-24 hours prior to harvesting. The amount of incorporated ^3H-thymidine was determined using a BECKMAN™ LS8000 liquid scintillation counter and proliferation expressed as either counts per minute (cpm) or as a proliferation index (PI). PI=(cpm of (PBMC+mitogen))/(cpm of (PBMC+media)) [formula]
All experiments were performed in triplicate. Results reported are characteristic of replicated experiments.
Statistical Analyses: Data were analysed by a two sample ANOVA test using 95% confidence limits such that a value of p≤0.05 was considered a significant difference.

[3] = tested on: human monocyte chemotaxis; settings: cited from earlier work
PBMC [4] = assay: Antigen (measles, mumps and rubella vaccine) induced PBMC proliferation (Example 11); format: cell-based, human; settings: without Peptide T 3.26 ± 0.55
Protocol: PBMC were incubated as described in relation to Table III in Example 9 in the presence of live, attenuated measles, mumps and rubella vaccine (Merck Sharp and Dohme, Canada) at a final dilution of 1:20. Peptide T was added either on day 1 of incubation or on a daily basis. Results are expressed as a proliferation index ± standard deviation.

SMILES: C[C@@H](N)C(=O)N[C@@H](CO)C(=O)N[C@H](C(=O)N[C@H](C(=O)N[C@H](C(=O)N[C@@H](CC(N)=O)C(=O)N[C@@H](Cc1ccc(O)cc1)C(=O)N[C@H](C(N)=O)[C@@H](C)O)[C@@H](C)O)[C@@H](C)O)[C@@H](C)O [Peptide T, D-Ala-Ser-Thr-Thr-Thr-Asn-Tyr-Thr-NH2]
- PBMC-mediated inhibition of Molt-4 proliferation (Molt-4 cells): remains unaffected
- tissue factor expression [1]: progressively reduce tissue factor expression
- [Neopterin] (Neopterin; Pre-Peptide T (baseline)): 47.3 ± 0.8 nM and 27.8 ± 0.8 nM and 13.15 ± 2.85 nM and 52.0 ± 4.0 nM
- [Neopterin] (Neopterin; post-Peptide T): 32.5 ± 3.5 nM and 19.75 ± 0.25 nM and 8.9 ± 0.6 nM and 16.85 ± 0.05 nM
- concentration able to inhibit stimulated PBMC cultures (PBMC [2]; Con A stimulated, as little as): 0.001 pM
- cytotoxicity for responding lymphocytes (PBMC [2]; Con A-induced proliferation measured daily): not cytotoxic
- proliferation index ± standard deviation (PBMC [2]; Con A, Peptide T 1x10^-9 M added Day 1, no Peptide T 21.0 ± 5.7): 6.2 ± 0.5
- proliferation index ± standard deviation (PBMC [2]; Con A, Peptide T 1x10^-9 M added Day 2, no Peptide T 21.0 ± 5.7): 6.0 ± 1.1
- proliferation index ± standard deviation (PBMC [2]; Con A, Peptide T 1x10^-9 M added Day 3, no Peptide T 21.0 ± 5.7): 9.9 ± 0.1
- proliferation index ± standard deviation (PBMC [2]; Con A, Peptide T 1x10^-9 M added Day 4, no Peptide T 21.0 ± 5.7): 9.5 ± 1.6
- concentration able to inhibit stimulated PBMC cultures (PBMC [2]; PHA stimulated): 0.1 pM
- proliferation index ± standard deviation (PBMC [2]; PHA, Peptide T 1x10^-9 M added Day 1, no Peptide T 197 ± 3): 148 ± 13
- proliferation index ± standard deviation (PBMC [2]; PHA, Peptide T 1x10^-9 M added Day 2, no Peptide T 197 ± 3): 101 ± 7
- proliferation index ± standard deviation (PBMC [2]; PHA, Peptide T 1x10^-9 M added Day 3, no Peptide T 197 ± 3): 148 ± 7
- proliferation index ± standard deviation (PBMC [2]; PHA, Peptide T 1x10^-9 M added Day 4, no Peptide T 197 ± 3): 131 ± 10
- concentration able to inhibit stimulated PBMC cultures (PBMC [2]; PWM stimulated, as little as): 0.001 pM
- proliferation index ± standard deviation (PBMC [2]; PWM, Peptide T 1x10^-9 M added Day 1, no Peptide T 4.29 ± 0.25): 3.13 ± 0.21
- proliferation index ± standard deviation (PBMC [2]; PWM, Peptide T 1x10^-9 M added Day 2, no Peptide T 4.29 ± 0.25): 3.20 ± 0.20
- proliferation index ± standard deviation (PBMC [2]; PWM, Peptide T 1x10^-9 M added Day 3, no Peptide T 4.29 ± 0.25): 2.65 ± 0.17
- proliferation index ± standard deviation (PBMC [2]; PWM, Peptide T 1x10^-9 M added Day 4, no Peptide T 4.29 ± 0.25): 3.22 ± 0.28
- mitogen induced proliferation of PBMC after exposure and washing (PBMC [2]; exposure to Peptide T for 2 hours, cells washed before mitogen): inhibition of proliferation
- Con A-induced lymphocyte proliferation measured daily (PBMC [2]; growth period day 2-4, Peptide T 10^-9M, compared with growth in absence of the drug): paralleled, but at a reduced rate
- growth of PBMC in the absence of mitogen (PBMC [2]; no mitogen): negligible effects; also recorded: did not significantly affect
- mitogen stimulation of PBMC after pre-incubation (PBMC [2]; pre-incubation with Peptide T for less than 30 minutes): no effect
- agonist activity on human monocyte chemotaxis [3]: potent agonists
- Proliferation Index ± S.D. (PBMC [4]; Peptide T added Daily, 10^-7 Mol/L): 1.83 ± 0.36
- Proliferation Index ± S.D. (PBMC [4]; Peptide T added Daily, 10^-9 Mol/L): 0.98 ± 0.16
- Proliferation Index ± S.D. (PBMC [4]; Peptide T added Daily, 10^-11 Mol/L): 1.56 ± 0.14
- Proliferation Index ± S.D. (PBMC [4]; Peptide T added Daily, 10^-13 Mol/L): 1.38 ± 0.51
- Proliferation Index ± S.D. (PBMC [4]; Peptide T added Daily, 10^-15 Mol/L): 1.56 ± 0.61
- Proliferation Index ± S.D. (PBMC [4]; Peptide T added Daily, 10^-17 Mol/L): 1.60 ± 0.60
- Proliferation Index ± S.D. (PBMC [4]; Peptide T added Daily, 10^-19 Mol/L): 2.27 ± 1.09
- Proliferation Index ± S.D. (PBMC [4]; Peptide T added Day 1, 10^-7 Mol/L): 4.02 ± 0.78
- Proliferation Index ± S.D. (PBMC [4]; Peptide T added Day 1, 10^-9 Mol/L): 1.91 ± 0.46
- Proliferation Index ± S.D. (PBMC [4]; Peptide T added Day 1, 10^-11 Mol/L): 5.35 ± 1.46
- Proliferation Index ± S.D. (PBMC [4]; Peptide T added Day 1, 10^-13 Mol/L): 5.46 ± 1.37
- Proliferation Index ± S.D. (PBMC [4]; Peptide T added Day 1, 10^-15 Mol/L): 5.56 ± 0.60
- Proliferation Index ± S.D. (PBMC [4]; Peptide T added Day 1, 10^-17 Mol/L): 3.99 ± 0.18
- Proliferation Index ± S.D. (PBMC [4]; Peptide T added Day 1, 10^-19 Mol/L): 6.15 ± 2.59
